The structures appear in SMILES notation.

One data set addresses T1, acetylcholinesterase (Rattus norvegicus, UniProt P37136).
T1 construct: Acetylcholinesterase: rat cortex; from tissue; host or cells: rat cortex
T1 sequence (P37136 32-614): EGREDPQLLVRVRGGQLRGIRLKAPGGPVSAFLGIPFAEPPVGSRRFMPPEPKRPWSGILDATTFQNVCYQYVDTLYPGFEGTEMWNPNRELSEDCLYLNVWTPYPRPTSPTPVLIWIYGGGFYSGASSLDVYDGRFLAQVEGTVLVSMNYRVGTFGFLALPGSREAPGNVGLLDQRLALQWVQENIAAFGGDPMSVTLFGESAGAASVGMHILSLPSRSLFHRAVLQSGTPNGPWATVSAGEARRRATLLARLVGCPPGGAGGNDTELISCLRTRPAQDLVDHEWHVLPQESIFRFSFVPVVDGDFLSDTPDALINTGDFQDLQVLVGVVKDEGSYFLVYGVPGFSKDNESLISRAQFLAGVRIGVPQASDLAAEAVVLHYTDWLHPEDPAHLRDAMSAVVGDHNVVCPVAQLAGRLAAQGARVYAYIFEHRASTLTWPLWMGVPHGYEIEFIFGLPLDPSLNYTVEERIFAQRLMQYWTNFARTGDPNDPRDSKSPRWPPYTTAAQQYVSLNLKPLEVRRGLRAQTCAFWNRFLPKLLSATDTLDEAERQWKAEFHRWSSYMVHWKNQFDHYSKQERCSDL
The data set is described as follows: biochemical. The conditions noted are these: rat cortex enzyme; for acetylcholinesterase inhibitory activity inhibition ratio (%): final concentration 4×10−5 mol/L; for IC50: read-out: acetylcholinesterase inhibitory activity IC50 (nmol). The class given is biochemical. The protocol: (§1) Sample processing: All samples were formulated as 10-2 mol/L solution by using 100% DMSO. 10-2 mol/L solution was used in microdetermination. 1 μL was taken to use in single tube experiment.
(§2) Solvent control: 0.4% DMSO was used in microdetermination. The inhibition ratio of the sample was obtained wherein the effect of solvent was deducted.
Acetylcholinesterase: rat cortex

Another data set has as its target T2, butyrylcholinesterase (Rattus norvegicus, UniProt Q9JKC1).
T2 construct: Butyrylcholinesterase: rat serum; from tissue; host or cells: rat serum
The data set is described as follows: inhibition of butyrylcholinesterase (rat serum). In kind it is biochemical. The conditions noted are these: rat serum enzyme; final concentration 4×10−5 mol/L. The protocol:
as §1, §2
Butyrylcholinesterase: rat serum

In another data set the test system is KM mice. Briefly: acute toxicities of compounds on mice. The class given is in vivo. As to conditions: 100 mg/kg oral. The protocol: Sample processing: When getting samples, they were undissolved. […] The samples were suspensions. Experimental animals: KM mice, 22-29 g, half male and half female.
Experimental method: Mice were randomly divided into groups. 100 mg/kg of test compounds DC19 and DC20 were administered orally, respectively.

T2 sequence (Q9JKC1 24-597): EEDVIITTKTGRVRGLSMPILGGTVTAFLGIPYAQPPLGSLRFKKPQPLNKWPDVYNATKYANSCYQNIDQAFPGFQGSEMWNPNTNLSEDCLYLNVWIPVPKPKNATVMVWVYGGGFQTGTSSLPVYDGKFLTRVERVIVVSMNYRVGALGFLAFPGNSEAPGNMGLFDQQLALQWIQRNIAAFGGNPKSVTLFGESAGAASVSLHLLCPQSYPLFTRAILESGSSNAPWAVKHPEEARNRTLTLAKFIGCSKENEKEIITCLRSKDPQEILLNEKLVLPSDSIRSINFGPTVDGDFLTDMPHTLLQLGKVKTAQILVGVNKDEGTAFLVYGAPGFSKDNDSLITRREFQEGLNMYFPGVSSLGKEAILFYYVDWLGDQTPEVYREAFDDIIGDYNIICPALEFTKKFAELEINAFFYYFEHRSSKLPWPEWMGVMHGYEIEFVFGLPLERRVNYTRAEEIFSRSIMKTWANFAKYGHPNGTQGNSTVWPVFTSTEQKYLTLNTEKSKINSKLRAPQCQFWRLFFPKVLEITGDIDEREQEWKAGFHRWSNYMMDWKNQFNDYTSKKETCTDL

For orientation: IC50 means the concentration that inhibits the measured activity by half. With `COc1cc2c(cc1OC)C(=O)C(CC1(F)CCN(Cc3ccccc3)CC1)C2` (stereo not drawn) [DC19, 2-((l-benzyl-4-fluoropiperidin-4-yl)methyl)-5,6-dimethoxy-2,3-dihydro-1H-inden-1-one], at acetylcholinesterase, the “acetylcholinesterase inhibitory activity inhibition ratio (%)” value is on record as 82.44% and the 50% inhibitory concentration (IC50) amounted to 0.96 nM. Also, the “butyrylcholinesterase inhibitory activity inhibition ratio (%)” value on butyrylcholinesterase turned out to be 71.58%. Moreover, the response symptoms in the data set on KM mice (female KM mouse) is listed as 30 min squint. Moreover, the “time of death after administration” value with KM mice (male KM mouse) is listed as 3 h after administration, death.

As for `COc1cc2c(cc1OC)C(=O)C(CC1(F)CCN(Cc3cccc(F)c3)CC1)C2.Cl` (centres unmarked) [DC38, 2-((4-fluoro-1-(3-fluorobenzyl)piperidin-4-yl)methyl)-5,6-dimethoxy-2,3-dihydro-1H-inden-1-one hydrochloride], the “acetylcholinesterase inhibitory activity inhibition ratio (%)” value on acetylcholinesterase was found to be 96.90%. Further, the “butyrylcholinesterase inhibitory activity inhibition ratio (%)” value on butyrylcholinesterase is on record as 72.57%.

As to `COc1cc2c(cc1OC)C(=O)C(CC1(F)CC3CCC(C1)N3Cc1cccc(F)c1)C2` (centres unmarked) [DC61, 2-((3-fluoro-8-(3-fluorobenzyl)-8-azabicyclo[3.2.1]octan-3-yl)methyl)-5,6-dimethoxy-2,3-dihydro-1H-inden-1-one], at acetylcholinesterase, the “acetylcholinesterase inhibitory activity inhibition ratio (%)” value stood at 96.75%. Also, on butyrylcholinesterase, the “butyrylcholinesterase inhibitory activity inhibition ratio (%)” value is on record as 61.04%.

`COc1cc2c(cc1OC)C(=O)C(CC1(F)CC3CCC(C1)N3Cc1cc(F)c(F)cc1F)C2` (centres unmarked) [DC57, 2-((3-fluoro-8-(2,4,5-trifluorobenzyl)-8-azabicyclo[3.2.1]octan-3-yl)methyl)-5,6-dimethoxy-2,3-dihydro-1H-inden-1-one]: the “acetylcholinesterase inhibitory activity inhibition ratio (%)” value on acetylcholinesterase turned out to be 96.75%. For the same compound, the “butyrylcholinesterase inhibitory activity inhibition ratio (%)” value on butyrylcholinesterase worked out at 1017%.

For the compound `CCOCOc1cc2c(cc1OCOCC)C(=O)C(CC1(F)CCN(Cc3ccccc3F)CC1)C2` (centres unmarked) [DC79, 5,6-bis(ethoxymethoxy)-2-((4-fluoro-1-(2-fluorobenzyl)piperidin-4-yl)methyl)-2,3-dihydro-1H-inden-1-one], at acetylcholinesterase, the “acetylcholinesterase inhibitory activity inhibition ratio (%)” value turned out to be 93.05% and the IC50 is 1.86 nM. For the same compound, the “butyrylcholinesterase inhibitory activity inhibition ratio (%)” value at butyrylcholinesterase turned out to be 75.0%.

For `COc1cc2c(cc1OC)C(=O)C(CC1(F)CC3CCC(C1)N3Cc1c(F)c(F)c(F)c(F)c1F)C2` (centres unmarked) [DC68, 2-((3-fluoro-8-((perfluorophenyl)methyl)-8-azabicyclo[3.2.1]octan-3-yl)methyl)-5,6-dimethoxy-2,3-dihydro-1H-inden-1-one], at acetylcholinesterase, the “acetylcholinesterase inhibitory activity inhibition ratio (%)” value was determined as 93.80%. In addition, on butyrylcholinesterase, the “butyrylcholinesterase inhibitory activity inhibition ratio (%)” value came out at 4.0%.

As to `O=C1c2cc(Cl)c(Cl)cc2CC1CC1(F)CCN(Cc2ccccc2F)CC1` (centres unmarked) [DC106, 5,6-dichloro-2-((4-fluoro-1-(2-fluorobenzyl)piperidin-4-yl)methyl)-2,3-dihydro-1H-inden-1-one], on acetylcholinesterase, the “acetylcholinesterase inhibitory activity inhibition ratio (%)” value was 70.05% and the IC50 stood at 500 nM. Further, the “butyrylcholinesterase inhibitory activity inhibition ratio (%)” value at butyrylcholinesterase was found to be 88.0%.

As for `COc1cc2c(cc1OC)C(=O)C(CC1(F)CCN(Cc3ccc(C(C)(C)C)cc3)CC1)C2` (centres unmarked) [DC7, 2-((1-(4-(tert-butyl)benzyl)-4-fluoropiperidin-4-yl)methyl)-5,6-dimethoxy-2,3-dihydro-1H-inden-1-one], the “acetylcholinesterase inhibitory activity inhibition ratio (%)” value at acetylcholinesterase was determined as 69.06%. Further, on butyrylcholinesterase, the “butyrylcholinesterase inhibitory activity inhibition ratio (%)” value is recorded as 8.40%.

With `COC(=O)c1ccc(CN2C3CCC2CC(F)(CC2Cc4cc(OC)c(OC)cc4C2=O)C3)cc1` (centres unmarked) [DC50, methyl 4-((3-((5,6-dimethoxy-1-oxo-2,3-dihydro-1H-inden-2-yl)methyl)-3-fluoro-8-azabicyclo[3.2.1]octan-8-yl)methyl)benzoate], the “acetylcholinesterase inhibitory activity inhibition ratio (%)” value at acetylcholinesterase worked out at 83.75%. Also, at butyrylcholinesterase, the “butyrylcholinesterase inhibitory activity inhibition ratio (%)” value is 0.00%.

Turning to `COc1cc2c(cc1OC)C(=O)C(CC1(F)CCN(CC3CCCCC3)CC1)C2` (centres unmarked) [DC33, 2-((1-(cyclohexylmethyl)-4-fluoropiperidin-4-yl)methyl)-5,6-dimethoxy-2,3-dihydro-1H-inden-1-one], the “acetylcholinesterase inhibitory activity inhibition ratio (%)” value at acetylcholinesterase was determined as 90.10%. Moreover, on butyrylcholinesterase, the “butyrylcholinesterase inhibitory activity inhibition ratio (%)” value was found to be 0.36%.

As to `O=C1c2cc(OC(F)F)c(OC(F)F)cc2CC1CC1(F)CCN(Cc2ccccc2F)CC1` (centres unmarked) [DC104, 5,6-bis(difluoromethoxy)-2-((4-fluoro-1-(2-fluorobenzyl)piperidin-4-yl)methyl)-2,3-dihydro-1H-inden-1-one], at acetylcholinesterase, the “acetylcholinesterase inhibitory activity inhibition ratio (%)” value came to 98.02% and the IC50 was found to be 0.76 nM. In addition, at butyrylcholinesterase, the “butyrylcholinesterase inhibitory activity inhibition ratio (%)” value turned out to be 71.8%.

As to `COc1cc2c(cc1OC)C(=O)C(CC1(F)CCN(Cc3ccc(OC(F)(F)F)cc3)CC1)C2` (centres unmarked) [DC6, 2-((4-fluoro-1-(4-(trifluoromethoxy)benzyl)piperidin-4-yl)methyl)-5,6-dimethoxy-2,3-dihydro-1H-inden-1-one], the “acetylcholinesterase inhibitory activity inhibition ratio (%)” value on acetylcholinesterase was 51.7%. Further, the “butyrylcholinesterase inhibitory activity inhibition ratio (%)” value on butyrylcholinesterase is 1.24%.

In the case of `COc1cc2c(cc1OC)C(=O)C(CC1(F)CC3CCC(C1)N3Cc1ccccc1F)C2` (centres unmarked) [DC60, 2-((3-fluoro-8-(2-fluorobenzyl)-8-azabicyclo[3.2.1]octan-3-yl)methyl)-5,6-dimethoxy-2,3-dihydro-1H-inden-1-one], at acetylcholinesterase, the “acetylcholinesterase inhibitory activity inhibition ratio (%)” value is on record as 95.13%. Further, the “butyrylcholinesterase inhibitory activity inhibition ratio (%)” value at butyrylcholinesterase was 64.31%.

The values above are taken from patent US20150284331A1 (priority 2012, published 2015).
